Test results: patent US10364314B2, “Compound, resin, material for forming underlayer film for lithography, composition for forming underlayer film for lithography, underlayer film for lithography, resist pattern forming method, circuit pattern forming method, and purification method” (Mitsubishi Gas Chemical Company, Inc., priority 2015, dated 2019)

Test: Solubility in PGME and PGMEA at 23° C.
Format: physicochemical
Protocol: The amount of each compound dissolved in 1-methoxy-2-propanol (PGME) and propylene glycol monomethyl ether acetate (PGMEA) was measured at 23° C., and the results were evaluated according to the following criteria.
Evaluation A: 10% by mass or more
Evaluation B: 5% by mass or more and less than 10% by mass
Evaluation C: less than 5% by mass

Structure (SMILES)	Evaluation of the solubility in PGME and PGMEA	solubility in PGME and PGMEA [% by mass]
Oc1ccc2c3c(ccc2c1)Oc1ccc2cc(O)ccc2c1C3c1c[nH]cn1 [IMX-2]	A (10% by mass or more)	≥ 10
Oc1ccc2ccc3c(c2c1)C(c1c[nH]cn1)c1c(ccc2ccc(O)cc12)O3 [IMX-1]	A (10% by mass or more)	≥ 10
CCCCc1nc(C2c3c(ccc4cc(O)ccc34)Oc3ccc4cc(O)ccc4c32)c(Cl)[nH]1 [IMX-5]	A (10% by mass or more)	≥ 10
Oc1ccc(-c2ccc(O)c(C(c3c[nH]cn3)c3cc(-c4ccc(O)cc4)ccc3O)c2)cc1 [IMX-3]	A (10% by mass or more)	≥ 10
Oc1ccc2c3c(ccc2c1)Oc1ccc2cc(O)ccc2c1C3c1c[nH]c(-c2ccccc2)n1 [IMX-4]	B (5% by mass or more and less than 10% by mass)	≥ 5
